These are literature values, as cited in patent US6461650B1, “Preparation for supplementing a beverage and method for enriching a beverage in calcium and magnesium” (Institut National de la Recherche Agronomique, priority 1998, dated 2002).

This data set concerns rats. The conditions noted are these: incorporated in the diet.

inulin: the “digestive assimilation of calcium and magnesium” value is “increase the digestive assimilation of calcium and magnesium”.
